Laboratory results: patent publication US9388189B2, “Pyrrolotriazinone derivatives as PI3K inhibitors” (ALMIRALL, S.A., priority 2012, dated 2016)

Target: PI3Kδ (PI3Kd) (Homo sapiens (Human), UniProt O00329)
Test: PI3K HTRF enzymatic inhibition assay (cell-free), delta isoform
Settings: read-out: IC50 PI3Kd HTRF; recombinant PI3K delta, [ATP] 15 μM, [PIP2] 2 μM, 30 min preincubation

PI3Kδ (PI3Kd), sequence (O00329 whole entry, canonical isoform): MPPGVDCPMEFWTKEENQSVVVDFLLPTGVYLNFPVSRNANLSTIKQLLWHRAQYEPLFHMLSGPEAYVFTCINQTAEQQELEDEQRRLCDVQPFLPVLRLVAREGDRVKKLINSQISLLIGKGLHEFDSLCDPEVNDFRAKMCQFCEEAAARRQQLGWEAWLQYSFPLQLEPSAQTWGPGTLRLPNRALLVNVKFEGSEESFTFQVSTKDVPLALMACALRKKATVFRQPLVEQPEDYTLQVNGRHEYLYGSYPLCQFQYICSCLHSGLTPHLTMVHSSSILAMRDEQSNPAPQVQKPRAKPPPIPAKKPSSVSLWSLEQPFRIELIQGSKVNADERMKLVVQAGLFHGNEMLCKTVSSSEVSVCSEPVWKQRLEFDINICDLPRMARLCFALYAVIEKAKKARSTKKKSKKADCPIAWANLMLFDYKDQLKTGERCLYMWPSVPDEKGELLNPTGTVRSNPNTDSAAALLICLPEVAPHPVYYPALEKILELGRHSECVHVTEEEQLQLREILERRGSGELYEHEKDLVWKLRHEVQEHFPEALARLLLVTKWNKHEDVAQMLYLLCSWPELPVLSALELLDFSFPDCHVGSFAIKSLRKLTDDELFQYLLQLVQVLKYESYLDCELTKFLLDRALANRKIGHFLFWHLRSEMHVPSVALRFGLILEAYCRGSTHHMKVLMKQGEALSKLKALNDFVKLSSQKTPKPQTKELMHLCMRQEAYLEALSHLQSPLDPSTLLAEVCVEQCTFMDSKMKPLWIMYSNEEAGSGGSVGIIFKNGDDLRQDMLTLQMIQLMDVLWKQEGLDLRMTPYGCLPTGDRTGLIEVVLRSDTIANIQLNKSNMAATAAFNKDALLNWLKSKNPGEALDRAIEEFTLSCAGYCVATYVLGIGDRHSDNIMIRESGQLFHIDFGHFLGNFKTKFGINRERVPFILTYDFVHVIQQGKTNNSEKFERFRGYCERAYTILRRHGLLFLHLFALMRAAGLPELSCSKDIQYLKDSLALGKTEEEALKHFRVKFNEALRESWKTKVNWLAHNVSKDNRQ
PI3Kδ (PI3Kd), sequence (P27986 whole entry partner, canonical isoform): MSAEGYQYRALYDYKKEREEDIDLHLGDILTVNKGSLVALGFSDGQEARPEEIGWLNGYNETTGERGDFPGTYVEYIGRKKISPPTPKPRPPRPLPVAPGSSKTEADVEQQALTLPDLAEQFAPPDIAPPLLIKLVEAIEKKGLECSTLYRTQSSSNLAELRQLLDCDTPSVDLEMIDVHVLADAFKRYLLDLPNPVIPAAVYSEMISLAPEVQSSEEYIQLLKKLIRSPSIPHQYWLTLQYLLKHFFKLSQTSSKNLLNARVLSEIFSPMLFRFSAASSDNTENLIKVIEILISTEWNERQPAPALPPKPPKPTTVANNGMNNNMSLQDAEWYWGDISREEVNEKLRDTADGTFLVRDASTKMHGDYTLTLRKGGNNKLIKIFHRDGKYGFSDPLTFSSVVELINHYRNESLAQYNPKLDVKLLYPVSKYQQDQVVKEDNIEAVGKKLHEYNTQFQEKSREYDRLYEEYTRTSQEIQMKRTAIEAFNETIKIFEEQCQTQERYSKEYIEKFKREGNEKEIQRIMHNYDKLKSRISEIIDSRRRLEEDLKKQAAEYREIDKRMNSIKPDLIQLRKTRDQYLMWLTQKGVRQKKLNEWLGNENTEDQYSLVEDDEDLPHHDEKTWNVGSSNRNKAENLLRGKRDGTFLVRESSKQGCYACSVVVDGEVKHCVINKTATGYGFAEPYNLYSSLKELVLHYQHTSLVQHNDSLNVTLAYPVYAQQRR

IC50	SMILES
36 nM	C[C@H](Nc1ncnc(N)c1C#N)c1nn2ccc(Cc3cccc(O)c3)c2c(=O)n1-c1ccccc1 [Example 74, (S)-4-Amino-6-((1-(5-(3-hydroxybenzyl)-4-oxo-3-phenyl-3,4-dihydropyrrolo[2,1-f][1,2,4]triazin-2-yl)ethyl)amino)pyrimidine-5-carbonitrile]
0.2 nM	Cc1ccn2nc([C@H](C)Nc3ncnc4[nH]cc(-c5cnn(CCCO)c5)c34)n(-c3ccccc3)c(=O)c12 [Example 140, (S)-2-(1-((5-(1-(3-Hydroxypropyl)-1H-pyrazol-4-yl)-7H-pyrrolo[2,3-d]pyrimidin-4-yl)amino)ethyl)-5-methyl-3-phenylpyrrolo[2,1-f][1,2,4]triazin-4(3H)-one]
2 nM	COc1ncc(-c2c[nH]c3ncnc(N[C@@H](C)c4nn5ccc(C)c5c(=O)n4-c4ccccc4)c23)cc1NS(C)(=O)=O [Example 45, (S)—N-(2-Methoxy-5-(4-((1-(5-methyl-4-oxo-3-phenyl-3,4-dihydropyrrolo[2,1-f][1,2,4]triazin-2-yl)ethyl)amino)-7H-pyrrolo[2,3-d]pyrimidin-5-yl)pyridin-3-yl)methanesulfonamide]
0.8 nM	Cc1ccn2nc([C@H](C)Nc3ncnc4[nH]cc(-c5cc(NS(C)(=O)=O)cc(N(C)C)c5)c34)n(-c3ccccc3)c(=O)c12 [Example 76, (S)—N-(3-(Dimethylamino)-5-(4-((1-(5-methyl-4-oxo-3-phenyl-3,4-dihydropyrrolo[2,1-f][1,2,4]triazin-2-yl)ethyl)amino)-7H-pyrrolo[2,3-d]pyrimidin-5-yl)phenyl)methanesulfonamide]
0.4 nM	Cc1ccn2nc([C@H](C)Nc3ncnc4[nH]cc(Cc5cc(O)cc(F)c5)c34)n(-c3ccccc3)c(=O)c12 [Example 78, (S)-2-(1-((5-(3-Fluoro-5-hydroxybenzyl)-7H-pyrrolo[2,3-d]pyrimidin-4-yl)amino)ethyl)-5-methyl-3-phenylpyrrolo[2,1-f][1,2,4]triazin-4(3H)-one]
1 nM	Cc1ccn2nc([C@H](C)Nc3ncnc(N)c3-c3cc(O)cc(C(=O)N(C)C)c3)n(-c3ccccc3)c(=O)c12 [Example 156, (S)-3-(4-Amino-6-((1-(5-methyl-4-oxo-3-phenyl-3,4-dihydropyrrolo[2,1-f][1,2,4]triazin-2-yl)ethyl)amino)pyrimidin-5-yl)-5-hydroxy-N,N-dimethyl benzamide]
4 nM	Cc1ccn2nc([C@H](C)Nc3ncnc4[nH]cc(-c5ccn(Cc6ccccc6O)n5)c34)n(-c3ccccc3)c(=O)c12 [Example 159, (S)-2-(1-((5-(1-(2-Hydroxybenzyl)-1H-pyrazol-3-yl)-7H-pyrrolo[2,3-d]pyrimidin-4-yl)amino)ethyl)-5-methyl-3-phenylpyrrolo[2,1-f][1,2,4]triazin-4(3H)-one]
3 nM	Cc1ccn2nc([C@H](C)Nc3ncnc4[nH]cc(Cc5cccc(O)c5)c34)n(-c3ccccc3)c(=O)c12 [Example 43, (S)-2-(1-((5-(3-Hydroxybenzyl)-7H-pyrrolo[2,3-d]pyrimidin-4-yl)amino)ethyl)-5-methyl-3-phenylpyrrolo[2,1-f][1,2,4]triazin-4(3H)-one]
3 nM	COc1ccc(S(=O)(=O)n2ccc3ccc(-c4c(N)ncnc4N[C@@H](C)c4nn5ccc(C)c5c(=O)n4-c4ccccc4)cc32)cc1 [Example 199, (S)-2-(1-((6-Amino-5-(1-((4-methoxyphenyl)sulfonyl)-1H-indol-6-yl)pyrimidin-4-yl)amino)ethyl)-5-methyl-3-phenylpyrrolo[2,1-f][1,2,4]triazin-4(3H)-one]
40 nM	C[C@H](Nc1ncnc(N)c1-c1ccc(N)nc1)c1nn2cccc2c(=O)n1-c1ccccc1 [Example 3, (S)-2-(1-((6-Amino-5-(6-aminopyridin-3-yl)pyrimidin-4-yl)amino)ethyl)-3-phenylpyrrolo[2,1-f][1,2,4]triazin-4(3H)-one]
0.7 nM	CCOc1ncc(-c2c(N)ncnc2N[C@@H](C)c2nn3ccc(C)c3c(=O)n2-c2ccccc2)cc1NS(=O)(=O)c1ccc(O)cc1 [Example 187, (S)—N-(5-(4-Amino-6-((1-(5-methyl-4-oxo-3-phenyl-3,4-dihydropyrrolo[2,1-f][1,2,4]triazin-2-yl)ethyl)amino)pyrimidin-5-yl)-2-ethoxypyridin-3-yl)-4-hydroxybenzenesulfonamide]
1 nM	Cc1ccn2nc([C@H](C)Nc3ncnc4[nH]cc(-c5cccc(Cl)c5O)c34)n(-c3ccccc3)c(=O)c12 [Example 104, (S)-2-(1-((5-(3-Chloro-2-hydroxyphenyl)-7H-pyrrolo[2,3-d]pyrimidin-4-yl)amino)ethyl)-5-methyl-3-phenylpyrrolo[2,1-f][1,2,4]triazin-4(3H)-one]
0.4 nM	Cc1ccn2nc([C@H](C)Nc3ncnc(N)c3-c3cncc(OC(F)F)c3)n(-c3ccccc3)c(=O)c12 [Example 127, (S)-2-(1-((6-Amino-5-(5-(difluoromethoxy)pyridin-3-yl)pyrimidin-4-yl)amino)ethyl)-5-methyl-3-phenylpyrrolo[2,1-f][1,2,4]triazin-4(3H)-one]
0.4 nM	CCNc1nnc(-c2c[nH]c3ncnc(N[C@@H](C)c4nn5ccc(C)c5c(=O)n4-c4ccccc4)c23)s1 [Example 120, (S)-2-(1-((5-(5-(Ethylamino)-1,3,4-thiadiazol-2-yl)-7H-pyrrolo[2,3-d]pyrimidin-4-yl)amino)ethyl)-5-methyl-3-phenylpyrrolo[2,1-f][1,2,4]triazin-4(3H)-one]
12 nM	C[C@H](Nc1ncnc(N)c1-c1cc(O)cc(F)c1)c1nn2ccc(Sc3ccccc3)c2c(=O)n1-c1ccccc1 [Example 34, (S)-2-(1-((6-Amino-5-(3-fluoro-5-hydroxyphenyl)pyrimidin-4-yl)amino)ethyl)-3-phenyl-5-(phenylthio)pyrrolo[2,1-f][1,2,4]triazin-4(3H)-one]
1 nM	Cc1ccn2nc([C@H](C)Nc3ncnc(N)c3-c3cc(O)cc(NS(=O)(=O)c4ccc(F)cc4F)c3)n(-c3ccccc3)c(=O)c12 [Example 130, (S)—N-(3-(4-Amino-6-((1-(5-methyl-4-oxo-3-phenyl-3,4-dihydropyrrolo[2,1-f][1,2,4]triazin-2-yl)ethyl)amino)pyrimidin-5-yl)-5-hydroxyphenyl)-2,4-difluorobenzenesulfonamide]
0.2 nM	Cc1ccn2nc([C@H](C)Nc3ncnc4[nH]cc(-c5cc(NS(C)(=O)=O)c6cc[nH]c6c5)c34)n(-c3ccccc3)c(=O)c12 [Example 209, (S)—N-(6-(4-((1-(5-Methyl-4-oxo-3-phenyl-3,4-dihydropyrrolo[2,1-f][1,2,4]triazin-2-yl)ethyl)amino)-7H-pyrrolo[2,3-d]pyrimidin-5-yl)-1H-indol-4-yl)methanesulfonamide]
156 nM	Cc1ccn2nc([C@H](C)Nc3ncnc(N)c3C(=O)N3CC[C@H](O)C3)n(-c3ccccc3)c(=O)c12 [Example 119, 3-((S)-1-((6-Amino-5-((S)-3-hydroxypyrrolidine-1-carbonyl)pyrimidin-4-yl)amino)ethyl)-8-methyl-2-phenylpyrrolo[2,1-f][1,2,4]triazin-1 (2H)-one]
1 nM	C[C@H](Nc1ncnc2[nH]cc(-c3cc(NS(C)(=O)=O)cc(OS(C)(=O)=O)c3)c12)c1nn2cccc2c(=O)n1-c1ccccc1 [Example 176, (S)-3-(Methylsulfonamido)-5-(4-((1-(4-oxo-3-phenyl-3,4-dihydropyrrolo[2,1-f][1,2,4]triazin-2-yl)ethyl)amino)-7H-pyrrolo[2,3-d]pyrimidin-5-yl)phenyl methanesulfonate]
